This note sets out measurements from publication PMC12040169 (PLOS Biology, 2025).

The series is described as follows: in vitro. Conditions: human, hela cells, % viability.
As for `CC(C)NC(=O)C1CC2CCC1(C)C[C@]21NC(=O)c2ccccc2N1` (stereo partly drawn) [CBK284444], the viability at 28.5 h, 10 µM came to 88.7%.
Then `CC12CCC(CC1C(=O)NC1CC1)[C@]1(C2)NC(=O)c2ccccc2N1` (stereo partly drawn) [CBK284445], with 92.2%.
In the case of `O=C1NC2(CC3CCC2N3Cc2ccco2)Nc2ccccc21` (stereo not drawn) [CBK284446], the viability at 28.5 h, 10 µM was 91.8%.
Then `CC(=O)N1CC2(CCN(C(=O)c3ccco3)CC2)Nc2ccccc21` [CBK284447], with 95.5%.
As to `O=C(C1CC1)N1C2CCC1Cn1c(nc3ccccc3c1=O)C2` (stereo not drawn) [CBK284451], the viability at 28.5 h, 10 µM came to 92.2%.
As for `O=C1N[C@@]2(CC3CCC2CC3C(=O)NC2CC2)Nc2ccccc21` (stereo partly drawn) [CBK284454], the viability at 28.5 h, 10 µM worked out at 85.9%.
Then `CN1CCC2(CCC1=O)CC(N)c1ccccc1O2` (stereo not drawn) [CBK284456], with 103%; and `Cc1cnn(CC(=O)N2CCC(c3cc4ncccc4[nH]3)CC2)c1` [CBK284458], with 77.2%; and `CN(C)c1ccc(C(=O)N2CCC(c3cc4ncccc4[nH]3)CC2)cc1` [CBK284459], with 93.3%.
With `Cc1cc(-c2ccc(=O)n(C3CCN(C(=O)C4CC4)CC3)n2)c(C)o1` [CBK284462], the viability at 28.5 h, 10 µM stood at 87.2%.
The figure for `CC(C)(C)OC(=O)N1CCCC2(CCCN(C(=O)c3ccco3)C2)C1` (stereo not drawn) [CBK284463] is 94.7%; for `COc1ccccc1CC(=O)N1CCC(c2onc3c2CCC3)CC1` [CBK284464] it is 99.2%.
Regarding `CC1CCc2nn(CCNC(=O)Cc3cccs3)c(=O)cc2C1` (stereo not drawn) [CBK284465], the viability at 28.5 h, 10 µM amounted to 88.8%.
On to `O=C1CCN(C(=O)c2ccccn2)CCN1Cc1cccc(F)c1` [CBK284467], for which the viability at 28.5 h, 10 µM was 90.5%.
The figure for `Cc1ccc2c(c1)C(=O)CC1(CC3CCC1N3C(=O)C(C)C)O2` (stereo not drawn) [CBK284468] is 87.1%; for `CN1C(=O)C(C)(C)Oc2ccc(C(O)c3ccco3)cc21` (stereo not drawn) [CBK284469] it is 89.8%.
For `COc1cc2c(cc1OC)C1c3ccccc3NC(=O)N1CC2` (stereo not drawn) [CBK284471], the viability at 28.5 h, 10 µM came to 88%.
On to `Cc1ccc2c(c1)oc(=O)n2CCNC(=O)c1cccs1` [CBK284472], for which the viability at 28.5 h, 10 µM was determined as 99.9%.
Then `Cc1c(CN2CCCC(n3cnc4cc(F)ccc43)C2)cnn1C` (stereo not drawn) [CBK284478], with 89.9%; and `CC1CCc2nn(CCNC(=O)Cc3ccc(F)cc3)c(=O)cc2C1` (stereo not drawn) [CBK284485], with 92.5%.
`O=C(c1ccco1)N1CCC(c2onc3c2CCCCC3)CC1` [CBK284486]: the viability at 28.5 h, 10 µM stood at 91%.
Then `O=C(C1CCCO1)N1CCC(c2onc3c2CCCCC3)CC1` (stereo not drawn) [CBK284487], with 98.4%; and `Cc1ccc(C2Nc3ccccc3C3=NCCCN32)o1` (stereo not drawn) [CBK284488], with 103%.
Consider `CC(=O)Nc1nc(-c2cccs2)c(-c2cc(C)no2)s1` [CBK284493], for which the viability at 28.5 h, 10 µM stood at 98.9%.
The figure for `COc1ccc(-n2ncc3c2CCCN(C(=O)C2CC2)C3)cc1` [CBK284498] is 84.3%; for `Cc1ccc(CC(=O)N2CCc3nn(C(C)C)c(=O)cc3C2)cc1` [CBK284499] it is 93.6%.
The figure for `Cc1cc(-c2cc3nc(C)c(C)c(O)n3n2)c(C)o1` [CBK284500] is 90.4%; for `COc1ccc(-n2ncc3c2CCCN(C(=O)C2CCCC2)C3)cc1` [CBK284501] it is 78%; for `O=C(O)c1ccc(-n2ccnc2)c(C#Cc2ccccc2)c1` [CBK284502] it is 89.5%.
Take `O=C(C1CC1)N1CCC2(CC1)Nc1cccnc1-n1cccc12` [CBK284504]: the viability at 28.5 h, 10 µM stood at 107%.
For `O=C(c1ccco1)N1CCC2(CC1)Nc1cccnc1-n1cccc12` [CBK284506], the viability at 28.5 h, 10 µM came out at 85.3%.
For `CCC(CC)C(=O)N1CCC2(CC1)Nc1cccnc1-n1cccc12` [CBK284508], the viability at 28.5 h, 10 µM stood at 80.7%.
For the compound `Cn1cccc1C1(O)CCCC2CN(C(=O)c3ccco3)CC21` (stereo not drawn) [CBK284509], the viability at 28.5 h, 10 µM turned out to be 99.9%.
The figure for `OC1(c2cccnc2)CCCC2CN(Cc3ccc(F)c(F)c3)CC21` (stereo not drawn) [CBK284511] is 101%; for `OC1(c2cccnc2)CCCC2CN(Cc3c(F)cccc3F)CC21` (stereo not drawn) [CBK284512] it is 114%; for `OC1(c2cccnc2)CCCC2CN(Cc3cc(F)ccc3F)CC21` (stereo not drawn) [CBK284513] it is 103%.
Then `N=C1OC2CSCC2N1C(=O)Cc1ccc(F)cc1` (stereo not drawn) [CBK284515], with 103%; and `Cc1cc(C(=O)N2C3CCC2CC(O)(c2ccnn2C)C3)sc1C` (stereo not drawn) [CBK284518], with 103%; and `O=C(Cc1ccccc1F)NCCn1nc2c(cc1=O)CCCCC2` [CBK284519], with 94.7%.
The figure for `Cc1cc(-c2ccc(=O)n(CCNC(=O)C3CCCCC3)n2)c(C)o1` [CBK284522] is 95.7%; for `N=C1OC2CSCC2N1C(=O)C1(c2ccccc2)CC1` (stereo not drawn) [CBK284524] it is 106%.
`O=C(c1cccs1)N1CCC[C@@H]1Cn1c(=O)oc2ccccc21` [CBK284528]: the viability at 28.5 h, 10 µM was 102%.
For the compound `CCCC(=O)N[C@@H](Cn1c(=O)oc2ccccc21)C(C)C` [CBK284536], the viability at 28.5 h, 10 µM turned out to be 91.2%.
In the case of `O=C(c1ccco1)N1CCC[C@@H]1Cn1c(=O)oc2ccccc21` [CBK284538], the viability at 28.5 h, 10 µM amounted to 87.6%.
As for `O=C(C1CCCC1)N1CCC[C@@H]1Cn1c(=O)oc2ccccc21` [CBK284539], the viability at 28.5 h, 10 µM amounted to 87.3%.
Turning to `CC[C@H](Cn1c(=O)oc2ccccc21)NC(=O)c1cccs1` [CBK284540], the viability at 28.5 h, 10 µM came to 80.7%.
Turning to `CC[C@H](Cn1c(=O)oc2ccccc21)NC(=O)c1ccco1` [CBK284541], the viability at 28.5 h, 10 µM came out at 86.7%.
On to `C[C@H](Cn1nc2c(cc1=O)CCCCC2)NC(=O)Cc1cccs1` [CBK284548], for which the viability at 28.5 h, 10 µM came to 100%.
The figure for `COc1ccc(F)c(CN2CC3CCCN3C[C@@H]2C)c1` (stereo partly drawn) [CBK284549] is 86.9%; for `CC[C@@H](Cn1nc2c(cc1=O)CCCCC2)NC(=O)c1ccco1` [CBK284553] it is 78.2%.
Then `C[C@@H]1CN2CCCC2CN1Cc1ccc2ncccc2c1` (stereo partly drawn) [CBK284555], with 99.3%; and `Cc1nc2nc(-c3ccc(Cl)s3)cn2nc1C` [CBK284565], with 103%.
For `CC(C)C(=O)N1C[C@H]2N(C)C(=O)c3ccccc3C(=O)[C@@]2(C)C1` [CBK284568], the viability at 28.5 h, 10 µM worked out at 97.8%.
For `CN1C(=O)c2ccccc2C(=O)[C@@]2(C)CN(C(=O)C3CC3)C[C@@H]12` [CBK284569], the viability at 28.5 h, 10 µM was determined as 87.3%.
Turning to `CN1C(=O)c2ccccc2C(=O)[C@@]2(C)CN(C(=O)C3CCCC3)C[C@@H]12` [CBK284570], the viability at 28.5 h, 10 µM came to 91.5%.
As to `CC(=O)NCCn1cc2c(n1)[C@H]1CN(C(=O)C(C)C)C[C@H]1CC2` [CBK284571], the viability at 28.5 h, 10 µM came to 93.3%.
The figure for `CC(=O)NCCn1cc2c(n1)[C@H]1CN(C(=O)CC(C)C)C[C@H]1CC2` [CBK284572] is 99.1%; for `CCOC(=O)[C@@]12CC=CCN(C(=O)c3ccco3)[C@@H]1CCC2` [CBK284574] it is 104%.
On to `CCOC(=O)[C@@]12CC=CCN(C(=O)c3cccnc3)[C@@H]1CCC2` [CBK284575], for which the viability at 28.5 h, 10 µM worked out at 90.8%.
For `CCn1ncc(CN2CCC(c3onc4c3CCCC4)CC2)c1C` [CBK284576], the viability at 28.5 h, 10 µM was determined as 90.2%.
Regarding `CCOC(=O)C1(Cc2cc(-c3ccccc3F)no2)CCCNC1` (stereo not drawn) [CBK284577], the viability at 28.5 h, 10 µM amounted to 85.2%.
Consider `CCOC(=O)C1(Cc2cc(-c3ccc(F)cc3)no2)CCCNC1` (stereo not drawn) [CBK284579], for which the viability at 28.5 h, 10 µM came out at 84%.
Regarding `CCOC(=O)C1(Cc2cc(-c3ccccc3F)no2)CCNCC1` [CBK284580], the viability at 28.5 h, 10 µM worked out at 101%.
On to `CCOC(=O)C1(Cc2cc(-c3ccc(F)cc3)no2)CCNCC1` [CBK284581], for which the viability at 28.5 h, 10 µM amounted to 109%.
Turning to `CN(C)[C@@H]1CN(Cc2ccccn2)C[C@H]1c1cn(C)c2ccccc12` [CBK284582], the viability at 28.5 h, 10 µM was 97.9%.
On to `CC(=O)NCCn1cc2c(n1)[C@H]1CN(C(=O)C3CCC3)C[C@H]1CC2` [CBK284584], for which the viability at 28.5 h, 10 µM is 107%.
Then `CC(=O)N1C[C@@H](c2ccsc2)[C@@H]2CN(CC3CCCCC3)CC[C@@H]21` [CBK284587], with 93%; and `O=C(NC1CC1)c1cc(C2CCCN(Cc3cccc(F)c3)C2)no1` (stereo not drawn) [CBK284588], with 99%; and `CC1CCN(C(=O)[C@@H]2CN(C)C[C@]23CCc2ccccc2C3=O)CC1` [CBK284589], with 100%.
For `CC(=O)N1CCCC(c2cc3cccnc3n2CCN2CCCC2)C1` (stereo not drawn) [CBK284591], the viability at 28.5 h, 10 µM was 96.8%.
Regarding `Cc1c(C(=O)N2CCCC(c3nc(C)n4ccsc34)C2)cnn1C` (stereo not drawn) [CBK284593], the viability at 28.5 h, 10 µM amounted to 102%.
In the case of `Cc1csc2c(C3CCCN(C(=O)c4ccccn4)C3)nc(C)n12` (stereo not drawn) [CBK284594], the viability at 28.5 h, 10 µM was found to be 98.6%.
The figure for `COCC(=O)N1CCC(c2onc3c2CC(C)CC3)CC1` (stereo not drawn) [CBK284599] is 89.9%; for `COCC(=O)N1CCC(c2cc(-c3ccc(F)cc3)n[nH]2)C1` (stereo not drawn) [CBK284600] it is 101%.
Regarding `COc1ccc(OC[C@@H]2C3CCC(C3)N2C(=O)C2CC2)cc1` (stereo partly drawn) [CBK284602], the viability at 28.5 h, 10 µM turned out to be 94.7%.
As to `Cc1noc2nc(C3CCCN(C(=O)C4CC4)C3)cc(C(F)F)c12` (stereo not drawn) [CBK284608], the viability at 28.5 h, 10 µM turned out to be 85.8%.
As for `O=C1NC2(CCc3ccccc31)CCN(Cc1ccncc1)C2` (stereo not drawn) [CBK284610], the viability at 28.5 h, 10 µM was found to be 99%.
Take `Cc1cccnc1CN1CCC2(CCc3ccccc3C(=O)N2)C1` (stereo not drawn) [CBK284611]: the viability at 28.5 h, 10 µM turned out to be 96.4%.
For `O=C(C1CCCC1)N1CCC(c2nnc3n2CCCCC3)CC1` [CBK284612], the viability at 28.5 h, 10 µM was determined as 103%.
Consider `CCCCC(=O)N1CC(n2nc(-c3ccccc3)ccc2=O)C1` [CBK284615], for which the viability at 28.5 h, 10 µM came to 95.6%.
Regarding `O=C1NC2(CCc3ccccc31)CCN(C/C=C/c1cccnc1)C2` (stereo not drawn) [CBK284622], the viability at 28.5 h, 10 µM was found to be 86.2%.

As a reminder, the viability is a read-out of living cells in per cent, often relative to untreated cells.
